Test systems include CCRF-CEM leukemia; DLD-1 colon; HOP-18 NSCLC; EKVX NSCLC; M19-MEL melanoma; DMS 114 small cell lung; SF-539 CNS; KM20L2 colon; OVCAR-5 ovarian; DMS 273 small cell lung; SNB-19 CNS; LXFL 529 NSCLC; DU-145 prostate.
What all share (assay): inhibition of tumour cell growth, NCI panel, 48 h

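Cells were grown in 96-well plates and exposed to each compound for 48 hours at five concentrations; endpoints were interpolated linearly between bracketing concentrations, or set to the highest concentration if not reached. GI50: concentration for 50% inhibition of growth. TGI marks complete inhibition of growth.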

Turning to `COc1ccccc1NC(=O)CSC(N)=O`, the TGI in the assay with CCRF-CEM leukemia, in the assay with DLD-1 colon, in the assay on HOP-18 NSCLC, in the assay on EKVX NSCLC, in the assay with M19-MEL melanoma and in the assay with DMS 114 small cell lung was over 100 µM throughout. For the same compound, the TGI is 70.4 µM in the assay with SF-539 CNS; over 100 µM in the assay with KM20L2 colon; over 100 µM with OVCAR-5 ovarian; over 100 µM with DMS 273 small cell lung; over 100 µM in the assay on SNB-19 CNS.
Consider `O=C(NCCNCCO)N/N=C/c1ccccc1`, for which the TGI in the assay with CCRF-CEM leukemia, in the assay on DLD-1 colon, in the assay with HOP-18 NSCLC, with LXFL 529 NSCLC, in the assay with DMS 114 small cell lung and in the assay on SF-539 CNS was over 100 µM throughout. Besides, the TGI in the assay on DMS 273 small cell lung and with SNB-19 CNS was over 100 µM throughout.
As to `CCOC(=O)/C(C1=N[C@H](C(=O)OCC)CS1)=C(\O)c1ccccc1`, the TGI in the assay with CCRF-CEM leukemia, with DLD-1 colon, in the assay with HOP-18 NSCLC, in the assay on EKVX NSCLC, in the assay on LXFL 529 NSCLC and with KM20L2 colon was over 100 µM in each case. The TGI with OVCAR-5 ovarian and with SNB-19 CNS was over 100 µM throughout.
`NNc1nnc(-c2ccccc2)nc1Cc1ccccc1`: the TGI in the assay on CCRF-CEM leukemia is over 100 µM; in the assay on DLD-1 colon, over 100 µM; in the assay with HOP-18 NSCLC, 7.25 µM; in the assay with EKVX NSCLC, over 100 µM; in the assay with LXFL 529 NSCLC, 78.9 µM; in the assay on M19-MEL melanoma it was over 100 µM. The TGI with DMS 114 small cell lung was 17 µM; with SF-539 CNS it was 64.1 µM; with KM20L2 colon, over 100 µM; in the assay on OVCAR-5 ovarian, over 100 µM; in the assay on DMS 273 small cell lung, over 100 µM; in the assay on SNB-19 CNS, over 100 µM.
`CC(=O)Nc1nc(C)c(S(=O)(=O)NC(=O)N2c3ccccc3CCc3ccccc32)s1`: the TGI is over 100 µM with CCRF-CEM leukemia; over 100 µM in the assay with EKVX NSCLC; over 100 µM in the assay with SF-539 CNS; over 100 µM with OVCAR-5 ovarian; over 100 µM in the assay on DU-145 prostate; 71.9 µM in the assay on SNB-19 CNS.
Consider `CN1CCCC(OC(=O)c2cc3cc(CCl)ccc3oc2=O)C1` (stereo unspecified), for which the TGI is 55 µM in the assay on CCRF-CEM leukemia; 91.5 µM in the assay on EKVX NSCLC; over 100 µM in the assay on SF-539 CNS; 43.4 µM in the assay with OVCAR-5 ovarian; over 100 µM in the assay on DU-145 prostate; over 100 µM with SNB-19 CNS.
`O=C(O)Cn1ncn(NC(=O)Cc2ccccc2)c1=S`: the TGI with CCRF-CEM leukemia, in the assay on EKVX NSCLC, in the assay with SF-539 CNS, in the assay on OVCAR-5 ovarian, in the assay on DU-145 prostate and with SNB-19 CNS was over 10 µM throughout.
For `COc1c(-c2ccc(F)cc2)oc2cc(O)cc(O)c2c1=O`, the TGI was 95.3 µM with CCRF-CEM leukemia; 45.5 µM with EKVX NSCLC; 39.7 µM in the assay on SF-539 CNS; 80.5 µM with OVCAR-5 ovarian; 96.5 µM in the assay on DU-145 prostate; over 100 µM in the assay with SNB-19 CNS.
Regarding `CCOC(=O)NC(OCc1ccccc1)(C(=O)OC)C(F)(F)F` (stereo unspecified), the TGI in the assay with CCRF-CEM leukemia, in the assay with EKVX NSCLC, in the assay with SF-539 CNS, with OVCAR-5 ovarian, with DU-145 prostate and in the assay with SNB-19 CNS was over 100 µM throughout.
`COC(=O)c1c(C)cccc1C1CN=NC12Cc1cccc(C)c1C2=O` (stereo unspecified): the TGI was 71.1 µM in the assay with CCRF-CEM leukemia; over 100 µM in the assay on EKVX NSCLC; 44.5 µM with SF-539 CNS; over 100 µM in the assay on OVCAR-5 ovarian; over 100 µM with DU-145 prostate; over 100 µM in the assay with SNB-19 CNS.
For the compound `Cc1sc2nc3n(sc4nc5sc(C)c(C)c5c(=O)n43)c(=O)c2c1C`, the TGI with CCRF-CEM leukemia is 45.1 µM; with EKVX NSCLC, 98.4 µM; with SF-539 CNS, over 100 µM; in the assay on OVCAR-5 ovarian it was over 100 µM; in the assay with DU-145 prostate it was over 100 µM; with SNB-19 CNS, over 100 µM.
Take `CCOC(=O)c1nc2ccccc2nc1Nc1ccc(F)cc1`: the TGI in the assay with CCRF-CEM leukemia is over 100 µM; with EKVX NSCLC, over 68.7 µM; with SF-539 CNS, over 58.9 µM; in the assay with OVCAR-5 ovarian, over 100 µM; in the assay on DU-145 prostate it was over 100 µM; in the assay with SNB-19 CNS, 46.6 µM.
Turning to `COc1ccc(/C=N/N=C(\N)NO)c(OC)c1OC`, the TGI was 76.1 µM in the assay on CCRF-CEM leukemia; over 100 µM in the assay on EKVX NSCLC; 61.7 µM in the assay on SF-539 CNS; over 100 µM in the assay on OVCAR-5 ovarian; over 100 µM in the assay with DU-145 prostate; over 100 µM in the assay on SNB-19 CNS.
For the compound `COC(=O)NC(Nc1ccc(C)cc1)(C(F)(F)F)C(F)(F)F`, the TGI in the assay on CCRF-CEM leukemia, in the assay with EKVX NSCLC, with SF-539 CNS, with OVCAR-5 ovarian, in the assay on DU-145 prostate and with SNB-19 CNS was over 100 µM throughout.
`Cc1cccc(=O)c([O-])c1.Cc1cccc(=O)c([O-])c1.Cc1cccc(=O)c([O-])c1.Cc1cccc(=O)c([O-])c1.[Th+4]`: in the assay with CCRF-CEM leukemia, the GI50 was 2.52 µM. The TGI with CCRF-CEM leukemia was 49.7 µM; with DLD-1 colon, over 100 µM; in the assay on HOP-18 NSCLC, over 100 µM; in the assay on EKVX NSCLC, over 89.1 µM; with LXFL 529 NSCLC, over 100 µM; in the assay on M19-MEL melanoma it was 61.8 µM. Also, the TGI was 15.6 µM in the assay with DMS 114 small cell lung; 54.3 µM in the assay on SF-539 CNS; over 100 µM in the assay with KM20L2 colon; over 100 µM in the assay on OVCAR-5 ovarian; 33 µM in the assay on DMS 273 small cell lung; over 100 µM in the assay with SNB-19 CNS.
Consider `Cc1cc(C)c(C#N)c(SC(=S)NC(=O)c2ccccc2)n1`, for which the TGI in the assay on CCRF-CEM leukemia, with EKVX NSCLC, with SF-539 CNS, with OVCAR-5 ovarian, in the assay on DU-145 prostate and with SNB-19 CNS was over 100 µM in each case.
With `Cn1c(=O)[nH]n(-c2ccc3ccccc3c2)c1=O`, the TGI in the assay with CCRF-CEM leukemia, in the assay with EKVX NSCLC, in the assay on SF-539 CNS, in the assay on OVCAR-5 ovarian, in the assay on DU-145 prostate and with SNB-19 CNS was over 100 µM each time.
For `O=C(O)c1cc(Nc2c(O)c3c(c(O)c2Cl)C(=O)C=CC3=O)ccc1O`, the TGI in the assay with CCRF-CEM leukemia, with EKVX NSCLC, with SF-539 CNS, with OVCAR-5 ovarian, in the assay on DU-145 prostate and in the assay on SNB-19 CNS was over 10 µM throughout.
Regarding `COc1ccc(Nc2nc(NNC(=O)Cc3ccccc3)nc(NNC(=O)c3ccncc3)n2)cc1`, the TGI in the assay on CCRF-CEM leukemia, in the assay with EKVX NSCLC, with SF-539 CNS, in the assay on OVCAR-5 ovarian, in the assay with DU-145 prostate and with SNB-19 CNS was over 10 µM in each case.
As to `COCCN(C(=O)c1ccccc1)C1CCC(=O)c2[nH]c3ccccc3c21` (stereo unspecified), the TGI in the assay on CCRF-CEM leukemia turned out to be 26.8 µM; in the assay on EKVX NSCLC, 25.7 µM; in the assay on SF-539 CNS it was 24.3 µM; with OVCAR-5 ovarian, 30.6 µM; in the assay with DU-145 prostate, 27.9 µM; in the assay on SNB-19 CNS it was 24.3 µM.
For the compound `Cc1ccc(C(=O)NN=C(/N=N/c2cccc(C)c2)c2ccc(N(C)C)cc2)cc1`, the TGI in the assay with CCRF-CEM leukemia, with EKVX NSCLC, in the assay on SF-539 CNS, with OVCAR-5 ovarian, with DU-145 prostate and in the assay on SNB-19 CNS was over 100 µM each time.
`CC(=O)c1cc(S(=O)(=O)c2ccc(O)c(C(C)=O)c2)ccc1O`: the TGI with CCRF-CEM leukemia, in the assay with EKVX NSCLC, with SF-539 CNS, in the assay on OVCAR-5 ovarian, with DU-145 prostate and with SNB-19 CNS was over 100 µM throughout.
As to `CC(C)CCCC(C)[C@H]1CC[C@H]2NCCCC[C@]12C` (stereo partly specified), the TGI in the assay with CCRF-CEM leukemia worked out at 4.16 µM; in the assay on EKVX NSCLC it was 5.23 µM; in the assay on SF-539 CNS, 19.5 µM; in the assay on OVCAR-5 ovarian, 6.03 µM; in the assay on DU-145 prostate it was 25.6 µM; in the assay on SNB-19 CNS, 17.9 µM.
For the compound `CCC(=O)Nc1ccc(N2C(=O)/C(=C/c3ccc(O)c(OC)c3)N=C2c2ccccc2)cc1`, the TGI in the assay on CCRF-CEM leukemia was over 100 µM; in the assay on EKVX NSCLC, 46.4 µM; with SF-539 CNS it was over 100 µM; with OVCAR-5 ovarian, over 100 µM; in the assay with DU-145 prostate, over 100 µM; with SNB-19 CNS, over 100 µM.
Turning to `O=C1c2ccccc2C2(c3ccc(Cl)cc3)N[C@@H]3CCCC[C@@H]3N12` (stereo partly specified), the TGI with CCRF-CEM leukemia, in the assay on EKVX NSCLC, with SF-539 CNS, in the assay on OVCAR-5 ovarian, in the assay with DU-145 prostate and in the assay on SNB-19 CNS was over 100 µM each time.
In the case of `Cc1cc(=O)[nH]c(NN2C(Cl)C(=O)C2c2ccco2)n1` (stereo unspecified), the TGI in the assay with CCRF-CEM leukemia was 45.6 µM; with HOP-18 NSCLC, 58.8 µM; in the assay with EKVX NSCLC it was over 100 µM; in the assay on LXFL 529 NSCLC it was over 100 µM; with M19-MEL melanoma, over 100 µM; in the assay on DMS 114 small cell lung, over 100 µM. Also, the TGI in the assay on SF-539 CNS was 85.9 µM; in the assay on KM20L2 colon, over 100 µM; with OVCAR-5 ovarian it was over 100 µM; with DMS 273 small cell lung, over 100 µM; with SNB-19 CNS, over 100 µM.
For `Cc1ccc(Cl)c2c(=O)cc(-c3ccccc3)[nH]c12`, the TGI in the assay on CCRF-CEM leukemia, in the assay on DLD-1 colon, in the assay on HOP-18 NSCLC, with LXFL 529 NSCLC, with M19-MEL melanoma and with SF-539 CNS was over 100 µM in each case. For the same compound, the TGI in the assay on OVCAR-5 ovarian and with DMS 273 small cell lung was over 100 µM each time.
As to `Cc1ccc(C2(N3CCOCC3)OC(C)(C)c3cccc4cccc2c34)cc1` (stereo unspecified), the TGI with CCRF-CEM leukemia was determined as 65.7 µM; with EKVX NSCLC it was 29.2 µM; in the assay on SF-539 CNS it was 34.8 µM; with OVCAR-5 ovarian, 34.4 µM; in the assay on DU-145 prostate, 37 µM; in the assay on SNB-19 CNS it was 32.6 µM.
Regarding `O=C1/C(=C(/Br)I)c2ccccc2-c2ccccc21`, the TGI in the assay with CCRF-CEM leukemia is 5.93 µM; in the assay with EKVX NSCLC it was 32.6 µM; in the assay with SF-539 CNS, 28.7 µM; in the assay on OVCAR-5 ovarian, 25.5 µM; with DU-145 prostate, 30 µM; with SNB-19 CNS, 27 µM.
Take `O=P1(N(CCCl)CCCl)NCCCO1` (stereo unspecified): the TGI is 213 µM in the assay on CCRF-CEM leukemia; over 250 µM in the assay with DLD-1 colon; 150 µM in the assay on HOP-18 NSCLC; over 250 µM with EKVX NSCLC; over 250 µM in the assay with LXFL 529 NSCLC; over 250 µM in the assay with M19-MEL melanoma. The TGI was over 250 µM in the assay on DMS 114 small cell lung; over 250 µM with SF-539 CNS; over 250 µM with KM20L2 colon; over 238 µM with OVCAR-5 ovarian; over 250 µM in the assay on DU-145 prostate; over 250 µM with DMS 273 small cell lung. The TGI in the assay with SNB-19 CNS is over 250 µM.

Values taken from PubChem BioAssay (NCI).
